The text below walks through data of patent publication US12281122B1, “PI3K inhibitors” (Cogent Biosciences, Inc., priority 2023, dated 2025).

pIC50: −log10 of the molar value. Where only a bound is given, the exact number is not on record here.

Experiment [1] deals with SKBR3 (PI3Kα-Wild Type) cell line. As to the kind of experiment: HTRF phospho-AKT(S473) cell assay in SKBR3 cells. The experiment is classed as cell-based, human. In a few lines:
(§1)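 HTRF read-out of phospho-AKT(S473) in lysates gave IC50 values after 2 h compound exposure at 37° C. Dose series was 12 points at 1:3, topping at 5 μM for T47D and 10 μM for SKBR3. Only SKBR3 received 70 ng/ml PDGF-BB during the last 15 minutes.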
On the technique in general: TR-FRET usually uses a lanthanide donor and a delayed reading to cut background.

Experiment [2] deals with T47D (PI3Kα-H1047R) cell line. As to the kind of experiment: HTRF phospho-AKT(S473) cell assay in T47D cells. The experiment is classed as cell-based, human. In a few lines: as §1
[3] abbreviates: Homo sapiens, SK-BR-3; HTRF phospho-AKT(S473), SKBR3 (PI3Kα-Wild Type) cells, 2 hours compound incubation, PDGF-BB stimulated.
Setting [4] is: Homo sapiens; HTRF phospho-AKT(S473), T47D (PI3Kα-H1047R) cells, 2 hours compound incubation.
Setting [5] is: Homo sapiens, SK-BR-3; SKBR3 (PI3Kα-Wild Type) cells, HTRF phospho-AKT(S473), 2 hours compound incubation, PDGF-BB stimulated.
The mark [6] stands for this setting: Homo sapiens; T47D (PI3Kα-H1047R) cells, HTRF phospho-AKT(S473), 2 hours compound incubation.

The pIC50 is the IC50 on a negative log10 scale, so that one unit is a factor of ten. A high value points to a small IC50. With `Cc1cnc(N2CCN(c3nc4c([C@@H](C)Nc5ccc(Cl)nc5C(=O)NS(C)(=O)=O)cc(C)cc4c(=O)n3C)CC2)nc1` [Compound 532, (R)-6-chloro-3-((1-(3,6-dimethyl-2-(4-(5-methylpyrimidin-2-yl)piperazin-1-yl)-4-oxo-3,4-dihydroquinazolin-8-yl)ethyl)amino)-N-(methylsulfonyl) picolinamide], the pIC50 in experiment [1] (setting [3]) is ≤ 5.30; in experiment [2] (setting [4]), 6.30 to 6.60.
Turning to `Cc1cc([C@@H](C)Nc2ccc(Cl)nc2C(=O)NS(C)(=O)=O)c2nc(N3CCC(C)(c4ccnn4C)CC3)n(C)c(=O)c2c1` [Compound 302, (R)-6-chloro-3-((1-(3,6-dimethyl-2-(4-methyl-4-(1-methyl-1H-pyrazol-5-yl)piperidin-1-yl)-4-oxo-3,4-dihydroquinazolin-8-yl)ethyl)amino)-N-(methylsulfonyl) picolinamide], the negative logarithm of the IC50 (pIC50) was 5.30 to 6.00 in experiment [1] (setting [5]) and > 6.60 in experiment [2] (setting [6]).
For the compound `Cc1cc([C@@H](C)Nc2ccc(Cl)nc2C(=O)NS(C)(=O)=O)c2nc(N3CC[C@@H](Nc4ncccn4)C3)n(C)c(=O)c2c1` [Compound 541, 6-chloro-3-(((R)-1-(3,6-dimethyl-4-oxo-2-((R)-3-(pyrimidin-2-ylamino)pyrrolidin-1-yl)-3,4-dihydroquinazolin-8-yl)ethyl)amino)-N-(methylsulfonyl) picolinamide], the pIC50 in experiment [1] (setting [3]) is ≤ 5.30; in experiment [2] (setting [4]) it was > 6.60.
As to `Cc1cc([C@@H](C)Nc2ccc(Cl)nc2C(=O)NS(C)(=O)=O)c2nc(N3C[C@H]4C[C@@H]3CN4c3ccn(C)n3)n(C)c(=O)c2c1` [Compound 229, 6-chloro-3-(((R)-1-(3,6-dimethyl-2-((1R,4R)-5-(1-methyl-1H-pyrazol-3-yl)-2,5-diazabicyclo[2.2.1]heptan-2-yl)-4-oxo-3,4-dihydroquinazolin-8-yl)ethyl)amino)-N-(methylsulfonyl) picolinamide], the pIC50 was 5.30 to 6.00 in experiment [1] (setting [5]) and > 6.60 in experiment [2] (setting [6]).
For `Cc1cc([C@@H](C)Nc2ccc(Cl)nc2C(=O)NS(C)(=O)=O)c2nc(N3CCC(c4cccn(C)c4=O)CC3)n(C)c(=O)c2c1` [Compound 348, (R)-6-chloro-3-((1-(3,6-dimethyl-2-(4-(1-methyl-2-oxo-1,2-dihydropyridin-3-yl)piperidin-1-yl)-4-oxo-3,4-dihydroquinazolin-8-yl)ethyl)amino)-N-(methylsulfonyl) picolinamide], the pIC50 in experiment [1] (setting [5]) is ≤ 5.30; in experiment [2] (setting [6]), > 6.60.
`CC(=O)N1CCN(c2ccc(-c3nc4c([C@@H](C)Nc5ccc(Cl)nc5C(=O)NS(C)(=O)=O)cc(C)cc4c(=O)n3C)cc2F)CC1` [Compound 778, (R)-3-((1-(2-(4-(4-acetylpiperazin-1-yl)-3-fluorophenyl)-3,6-dimethyl-4-oxo-3,4-dihydroquinazolin-8-yl)ethyl)amino)-6-chloro-N-(methylsulfonyl) picolinamide]: the negative logarithm of the IC50 (pIC50) was 5.30 to 6.00 in experiment [1] (setting [3]) and > 6.60 in experiment [2] (setting [4]).
For `Cc1cc([C@@H](C)Nc2ccc(Cl)nc2C(=O)NS(C)(=O)=O)c2nc(N3Cc4cn(Cc5ccccc5)nc4C3)n(C)c(=O)c2c1` [Compound 684, (R)-3-((1-(2-(2-benzyl-2,6-dihydropyrrolo[3,4-c]pyrazol-5(4H)-yl)-3,6-dimethyl-4-oxo-3,4-dihydroquinazolin-8-yl)ethyl)amino)-6-chloro-N-(methylsulfonyl) picolinamide], in that order: 5.30 to 6.00 and > 6.60.
As to `Cc1cc([C@@H](C)Nc2ccc(Cl)nc2C(=O)NS(C)(=O)=O)c2nc(N3C[C@H]4C[C@@H]3CN4c3nc(C)ncc3F)n(C)c(=O)c2c1` [Compound 605, 6-chloro-3-(((R)-1-(2-((1R,4R)-5-(5-fluoro-2-methylpyrimidin-4-yl)-2,5-diazabicyclo [2.2.1]heptan-2-yl)-3,6-dimethyl-4-oxo-3,4-dihydroquinazolin-8-yl)ethyl)amino)-N-(methylsulfonyl) picolinamide], the pIC50 in experiment [1] (setting [3]) was ≤ 5.30; in experiment [2] (setting [4]), 6.30 to 6.60.
For `Cc1cc([C@@H](C)Nc2ccc(Cl)nc2C(=O)NS(C)(=O)=O)c2nc(-c3ccc4nn(CC5CC5)cc4c3)n(C)c(=O)c2c1` [Compound 795, (R)-6-chloro-3-((1-(2-(2-(cyclopropylmethyl)-2H-indazol-5-yl)-3,6-dimethyl-4-oxo-3,4-dihydroquinazolin-8-yl)ethyl)amino)-N-(methylsulfonyl) picolinamide], in that order: 5.30 to 6.00 and > 6.60.
For the compound `Cc1cc([C@@H](C)Nc2ccc(Cl)nc2C(=O)NS(C)(=O)=O)c2nc(N3CCC(c4ncc(C)nc4C)CC3)n(C)c(=O)c2c1` [Compound 525, (R)-6-chloro-3-((1-(2-(4-(3,5-dimethylpyrazin-2-yl)piperidin-1-yl)-3,6-dimethyl-4-oxo-3,4-dihydroquinazolin-8-yl)ethyl)amino)-N-(methylsulfonyl) picolinamide], the pIC50 in experiment [1] (setting [3]) was ≤ 5.30; in experiment [2] (setting [4]), > 6.60.
Turning to `Cc1cc([C@@H](C)Nc2ccc(Cl)nc2C(=O)NS(C)(=O)=O)c2nc(N3CCC(n4ccc(N(C)C)n4)CC3)n(C)c(=O)c2c1` [Compound 310, (R)-6-chloro-3-((1-(2-(4-(3-(dimethylamino)-1H-pyrazol-1-yl)piperidin-1-yl)-3,6-dimethyl-4-oxo-3,4-dihydroquinazolin-8-yl)ethyl)amino)-N-(methylsulfonyl) picolinamide], the values for the pIC50 in experiment [1] (setting [5]) and in experiment [2] (setting [6]) were 5.30 to 6.00 and > 6.60, respectively.
For `Cc1cc([C@@H](C)Nc2ccc(Cl)nc2C(=O)NS(C)(=O)=O)c2nc(N3CC[C@H](Oc4cncnc4)C3)n(C)c(=O)c2c1` [Compound 354, 6-chloro-3-(((R)-1-(3,6-dimethyl-4-oxo-2-((S)-3-(pyrimidin-5-yloxy)pyrrolidin-1-yl)-3,4-dihydroquinazolin-8-yl)ethyl)amino)-N-(methylsulfonyl) picolinamide] the same measures were 5.30 to 6.00 and > 6.60.
`Cc1cc([C@@H](C)Nc2ccc(Cl)nc2C(=O)NS(C)(=O)=O)c2nc(N3CCN(c4ncc(C#N)cn4)CC3)n(C)c(=O)c2c1` [Compound 531, (R)-6-chloro-3-((1-(2-(4-(5-cyanopyrimidin-2-yl)piperazin-1-yl)-3,6-dimethyl-4-oxo-3,4-dihydroquinazolin-8-yl)ethyl)amino)-N-(methylsulfonyl) picolinamide]: the pIC50 in experiment [1] (setting [3]) is 5.30 to 6.00; in experiment [2] (setting [4]), > 6.60.
On to `Cc1cc([C@@H](C)Nc2ccc(Cl)nc2C(=O)NS(C)(=O)=O)c2nc(N3CCn4nc(C)cc4C3)n(C)c(=O)c2c1` [Compound 166], for which the pIC50 in experiment [1] (setting [5]) is 5.30 to 6.00; in experiment [2] (setting [6]), > 6.60.
Regarding `Cc1cc([C@@H](C)Nc2ccc(Cl)nc2C(=O)NS(C)(=O)=O)c2nc(N3[C@@H]4CC[C@H]3C[C@H](c3ccn(C)n3)C4)n(C)c(=O)c2c1` [Compound 342, 6-chloro-3-(((R)-1-(3,6-dimethyl-2-((1R,3S,5S)-3-(1-methyl-1H-pyrazol-3-yl)-8-azabicyclo[3.2.1]octan-8-yl)-4-oxo-3,4-dihydroquinazolin-8-yl)ethyl)amino)-N-(methylsulfonyl) picolinamide], the results for the pIC50 in experiment [1] (setting [5]) and in experiment [2] (setting [6]) were 5.30 to 6.00 and > 6.60, respectively.
